Measured values taken from patent US20090124607A1, “Novel Bicyclic Sulfonamides for Use as Glucocorticoid Receptor Modulators in the Treatment of Inflammatory Diseases” (priority 2005, published 2009).

What follows are compounds tested against T1, recombinant human GR (Homo sapiens, UniProt P04150) (assay: Human Glucocorticoid Receptor (GR) Assay, fluorescence polarization (GRhuFL_FP_v2, GR-binders)).
T1 construct: purchased Panvera/Invitrogen P2812 (kit P2893)
T1 sequence (P04150 1-777): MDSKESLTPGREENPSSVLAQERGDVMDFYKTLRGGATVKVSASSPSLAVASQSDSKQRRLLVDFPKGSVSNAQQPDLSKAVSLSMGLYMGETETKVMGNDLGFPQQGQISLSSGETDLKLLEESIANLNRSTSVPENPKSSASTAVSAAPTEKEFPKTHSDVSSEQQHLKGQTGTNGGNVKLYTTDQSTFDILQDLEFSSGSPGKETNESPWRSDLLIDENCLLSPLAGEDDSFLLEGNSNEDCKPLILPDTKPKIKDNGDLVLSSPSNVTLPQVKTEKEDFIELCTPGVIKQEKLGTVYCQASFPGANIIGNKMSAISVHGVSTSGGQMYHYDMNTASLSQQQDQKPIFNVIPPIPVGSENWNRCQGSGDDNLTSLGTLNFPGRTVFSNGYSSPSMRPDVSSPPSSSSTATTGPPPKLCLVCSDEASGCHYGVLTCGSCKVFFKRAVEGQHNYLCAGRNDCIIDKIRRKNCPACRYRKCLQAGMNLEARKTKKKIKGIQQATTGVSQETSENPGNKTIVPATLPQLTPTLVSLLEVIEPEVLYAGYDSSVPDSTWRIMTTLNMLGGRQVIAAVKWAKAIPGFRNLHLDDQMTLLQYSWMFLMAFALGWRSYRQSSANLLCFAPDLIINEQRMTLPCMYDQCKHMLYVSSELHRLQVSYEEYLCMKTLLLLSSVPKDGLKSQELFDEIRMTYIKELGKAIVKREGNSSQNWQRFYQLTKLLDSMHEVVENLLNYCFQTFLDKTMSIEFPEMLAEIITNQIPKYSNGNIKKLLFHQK
Type: binding
Experimental: Human Glucocorticoid Receptor (GR) Assay
The assay is based on a commercial kit from Panvera/Invitrogen (Part number P2893). The assay technology is fluorescence polarization. […] The GR and Stabilizing Peptide reagents are stored at −70° C. while the GS Red is stored at −20° C. Also included in the kit are 1M DTT (Panvera, Part number P2325, stored at −20° C.) and GR Screening buffer 10× (Panvera, Part number P2814, stored at −70° C. initially but once thawed stored at room temperature). Avoid repeated freeze/thaws for all reagents. The GR Screening buffer 10× comprises 100 mM potassium phosphate, 200 mM sodium molybdate, 1 mM EDTA and 20% DMSO.
0% control was 100% DMSO and 100% control was 10 μM Dexamethasone. Background solution (8 μL; assay buffer 10×, Stabilizing Peptide, DTT and ice cold MQ water) was added to the background wells. GS Red solution (7 μL; assay buffer 10×, Stabilizing Peptide, DTT, GS Red and ice cold water) was added to all wells except background wells. GR solution (7 μL; assay buffer 10×, Stabilizing Peptide, DTT, GR and ice cold water) was added to all wells. The plate was sealed and incubated in a dark at room temperature for 2 hours.

SMILES | IC50
Cc1cc(C)c(S(=O)(=O)NC[C@@H](C)Nc2cccc3c2cnn3-c2ccc(F)cc2)c(C)c1 [Example 24, N-((2R)-2-{[1-(4-Fluorophenyl)-1H-indazol-4-yl]amino}propyl)-2,4,6-trimethylbenzenesulfonamide] | 8.7 nM
Cc1nn(C2CCCC2)c(C)c1S(=O)(=O)N[C@@H](C)CNc1cccc2c1cnn2-c1cncnc1 [Example 29, 1-Cyclopentyl-3,5-dimethyl-N-{(1S)-1-methyl-2-[(1-pyrimidin-5-yl-1H-indazol-4-yl)amino]ethyl}-1H-pyrazole-4-sulfonamide] | 5.7 nM
Cc1cc(C)c(S(=O)(=O)N[C@@H](C)CNc2cccc3c2c(C)nn3-c2ccc(F)cc2)c(C)c1 [Example 52, N-((1S)-2-{[1-(4-Fluoro-phenyl)-3-methyl-1H-indazol-4-yl]amino}-1-methylethyl)-2,4,6-trimethylbenzenesulfonamide] | 272 nM
Cc1cc(C)c(S(=O)(=O)N[C@@H](C)CNc2cccc3c2cnn3-c2cccc(C(=O)O)c2)c(C)c1 [Example 18, 3-[4-({(2S)-2-[(2,4,6-Trimethylbenzenesulfonyl)amino]propyl}amino)-1H-indazol-1-yl]benzoic acid] | 57 nM
Cc1cc(C)c(S(=O)(=O)N[C@H](CNc2cccc3c2cnn3-c2ccc(F)cc2)C(C)C)c(C)c1 [Example 35, N-[(1S)-1-({[1-(4-Fluorophenyl)-1H-indazol-4-yl]amino}methyl)-2-methylpropyl]-2,4,6-trimethylbenzenesulfonamide] | 8 nM
Cc1nn([C@@H]2CCOC2)c(C)c1S(=O)(=O)N[C@@H](C)COc1cccc2c1cnn2-c1ccc(F)cc1 [Example 45, N-((1S)-2-{[1-(4-Fluorophenyl)-1H-indazol-4-yl]oxy}-1-methylethyl)-3,5-dimethyl-1-[(3R)-tetrahydrofuran-3-yl]-1H-pyrazole-4-sulfonamide] | 18 nM
Cc1cc(C)c(S(=O)(=O)NC(C)CSc2cccc3c2cnn3-c2ccc(F)cc2)c(C)c1 (stereo not shown) [Example 36, N-[2-[1-(4-Fluorophenyl)indazol-4-yl]sulfanyl-1-methylethyl]-2,4,6-trimethyl-benzenesulfonamide] | 7.6 nM
Cc1nn(C(C)(C)C)c(C)c1S(=O)(=O)N[C@@H](C)COc1cccc2c1cnn2-c1cccnc1 [Example 44, 1-tert-Butyl-3,5-dimethyl-N-{(1S)-1-methyl-2-[(1-pyridin-3-yl-1H-indazol-4-yl)oxy]ethyl}-1H-pyrazole-4-sulfonamide] | 80 nM
Cc1cc(C)c(S(=O)(=O)N[C@@H](C)CCc2cccc3c(-c4ccc(F)cc4)n[nH]c23)c(C)c1 [Example 53, N-{(1S)-3-[3-(4-Fluorophenyl)-1H-indazol-7-yl]-1-methylpropyl}-2,4,6-trimethylbenzenesulfonamide] | 10 nM
Cc1nn(C2CCCC2)c(C)c1S(=O)(=O)N[C@@H](C)COc1cccc2c1cnn2-c1ccc(F)cc1 [Example 48, 1-Cyclopentyl-N-((1S)-2-{[1-(4-fluorophenyl)-1H-indazol-4-yl]oxy}-1-methylethyl)-3,5-dimethyl-1H-pyrazole-4-sulfonamide] | 51 nM
Cc1nn(C(C)(C)C)c(C)c1S(=O)(=O)N[C@@H](C)COc1cccc2c1cnn2-c1ccc(F)cc1 [Example 43, 1-tert-Butyl-N-((1S)-2-[{1-(4-fluorophenyl)-1H-indazol-4-yl]oxy}-1-methylethyl)-3,5-dimethyl-1H-pyrazole-4-sulfonamide] | 13 nM
Cc1nn([C@H]2CCOC2)c(C)c1S(=O)(=O)N[C@@H](C)COc1cccc2c1cnn2-c1ccc(F)cc1 [Example 47, N-((1S)-2-{[1-(4-Fluorophenyl)-1H-indazol-4-yl]oxy}-1-methylethyl)-3,5-dimethyl-1-[(3S)-tetrahydrofuran-3-yl]-1H-pyrazole-4-sulfonamide] | 36 nM
Cc1n[nH]c(C)c1S(=O)(=O)N[C@@H](C)COc1cccc2c1cnn2-c1cccnc1 [Example 42, 3,5-Dimethyl-N-{(1S)-1-methyl-2-[(1-pyridin-3-yl-1H-indazol-4-yl)oxy]ethyl}-1H-pyrazole-4-sulfonamide] | 4000 nM
Cc1cc(C)c(S(=O)(=O)N[C@@H](C)CCc2cccc3c2cnn3-c2cncnc2)c(C)c1 [Example 54, 2,4,6-Trimethyl-N-[(1S)-1-methyl-3-(1-pyrimidin-5-yl-1H-indazol-4-yl)propyl]benzenesulfonamide] | 17 nM
Cc1cc(C)c(S(=O)(=O)NC(C)CCc2cccc3c2cnn3-c2ccc(F)cc2)c(C)c1 (stereo not shown) [Example 38, N-{3-[1-(4-Fluorophenyl)-1H-indazol-4-yl]-1-methylpropyl}-2,4,6-trimethylbenzenesulfonamide] | 45 nM
Cc1cc(C)c(S(=O)(=O)N[C@@H](C)CNc2cccc3c2cnn3-c2cccc(OC(F)(F)F)c2)c(C)c1 [Example 6, 2,4,6-Trimethyl-N-[(1S)-1-methyl-2-({1-[3-(trifluoromethoxy)phenyl]-1H-indazol-4-yl}amino)ethyl]benzenesulfonamide] | 15 nM

Stronger by IC50, values ahead:

IC50 | SMILES
5.5 nM | Cc1cc(C)c(S(=O)(=O)N[C@@H](C)CNc2ccc(F)c3c2cnn3-c2ccc(F)cc2)c(C)c1 [Example 33, N-((1S)-2-{[7-Fluoro-1-(4-fluoro-phenyl)-1H-indazol-4-yl]amino}-1-methylethyl)-2,4,6-trimethylbenzenesulfonamide]
5.4 nM | Cc1cc(C)c(S(=O)(=O)N[C@@H](C)CNc2cccc3c2cnn3-c2cncnc2)c(C)c1 [Example 15, 2,4,6-Trimethyl-N-{(1S)-1-methyl-2-[(1-pyrimidin-5-yl-1H-indazol-4-yl)amino]ethyl}benzenesulfonamide]
4.6 nM | Cc1cc(C)c(S(=O)(=O)N[C@@H](C)CCc2cccc3c2cnn3-c2ccc(F)cc2)c(C)c1 [Example 39, N-{(1S)-3-[1-(4-Fluorophenyl)-1H-indazol-4-yl]-1-methylpropyl}-2,4,6-trimethylbenzenesulfonamide]
4.3 nM | Cc1cc(C)c(S(=O)(=O)N[C@@H](C)CNc2cccc3c2cnn3-c2ccncc2)c(C)c1 [Example 14, 2,4,6-Trimethyl-N-{(1S)-1-methyl-2-[(1-pyridin-4-yl-1H-indazol-4-yl)amino]ethyl}benzenesulfonamide]
4 nM | Cc1cc(C)c(S(=O)(=O)N[C@@H](C)CNc2cccc3c2cnn3-c2cccc(F)c2)c(C)c1 [Example 13, N-((1S)-2-{[1-(3-Fluorophenyl)-1H-indazol-4-yl]amino}-1-methylethyl)-2,4,6-trimethylbenzenesulfonamide]
3.9 nM | Cc1ccc(-n2ncc3c(NC[C@H](C)NS(=O)(=O)c4c(C)cc(C)cc4C)cccc32)cc1 [Example 12, 2,4,6-Trimethyl-N-((1S)-1-methyl-2-{[1-(4-methylphenyl)-1H-indazol-4-yl]amino}ethyl)benzenesulfonamide]
3.8 nM | Cc1nn(C2CCCC2)c(C)c1S(=O)(=O)N[C@@H](C)CNc1cccc2c1cnn2-c1ccc(F)cc1 [Example 25]
3.5 nM | Cc1cc(C)c(S(=O)(=O)N[C@@H](C)CNc2cccc3c2cnn3-c2ccccc2)c(C)c1 [Example 7, 2,4,6-Trimethyl-N-{(1S)-1-methyl-2-[(1-phenyl-1H-indazol-4-yl)amino]ethyl}benzenesulfonamide]
2.3 nM | Cc1cc(C)c(S(=O)(=O)N[C@@H](C)CNc2cccc3c2cnn3-c2ccc(F)nc2)c(C)c1 [Example 3, N-((1S)-2-{[1-(6-Fluoropyridin-3-yl)-1H-indazol-4-yl]amino}-1-methylethyl)-2,4,6-trimethylbenzenesulfonamide]
